#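 Following 48 hours of exposure in 96-well plates, responses at five concentrations were used to interpolate endpoints linearly. At the GI50, growth is halved. At the TGI there is no net growth.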
# Columns and labels:
# Experiment in all cases: growth of human tumour cells (NCI), 48 h
# NCI/ADR-RES ovarian = test system: NCI/ADR-RES ovarian
# A549 NSCLC = test system: A549 NSCLC
# T-47D breast = test system: T-47D breast
# OVCAR-5 ovarian = test system: OVCAR-5 ovarian
# SN12C renal = test system: SN12C renal
# SK-MEL-5 melanoma = test system: SK-MEL-5 melanoma
# DU-145 prostate = test system: DU-145 prostate
# SR leukemia = test system: SR leukemia
# HOP-92 NSCLC = test system: HOP-92 NSCLC
# OVCAR-4 ovarian = test system: OVCAR-4 ovarian
# PC-3 prostate = test system: PC-3 prostate
# MDA-MB-435 = test system: MDA-MB-435
# RXF 393 renal = test system: RXF 393 renal
# ACHN renal = test system: ACHN renal
# HCT-116 colon = test system: HCT-116 colon
# OVCAR-3 ovarian = test system: OVCAR-3 ovarian
# A498 renal = test system: A498 renal
# SK-MEL-2 melanoma = test system: SK-MEL-2 melanoma
# IGROV1 ovarian = test system: IGROV1 ovarian
# NCI-H226 lung = test system: NCI-H226 lung
# UACC-62 melanoma = test system: UACC-62 melanoma
# KM12 colon = test system: KM12 colon
# OVCAR-8 ovarian = test system: OVCAR-8 ovarian
# 786-0 renal = test system: 786-0 renal
# SK-OV-3 ovarian = test system: SK-OV-3 ovarian
# CAKI-1 renal = test system: CAKI-1 renal
# NCI-H522 lung = test system: NCI-H522 lung
# K-562 leukemia = test system: K-562 leukemia
# UO-31 renal = test system: UO-31 renal
# COLO 205 colon = test system: COLO 205 colon
# NCI-H23 lung = test system: NCI-H23 lung
# MOLT-4 leukemia = test system: MOLT-4 leukemia
# HCT-15 colon = test system: HCT-15 colon
# SF-268 CNS = test system: SF-268 CNS
# NCI-H460 lung = test system: NCI-H460 lung
# U251 CNS = test system: U251 CNS
# SK-MEL-28 melanoma = test system: SK-MEL-28 melanoma
# LOX IMVI melanoma = test system: LOX IMVI melanoma
# SNB-19 CNS = test system: SNB-19 CNS
# HS 578T breast = test system: HS 578T breast
# TK-10 renal = test system: TK-10 renal
# MALME-3M melanoma = test system: MALME-3M melanoma
# RPMI-8226 leukemia = test system: RPMI-8226 leukemia
# SF-295 CNS = test system: SF-295 CNS
# M14 melanoma = test system: M14 melanoma
# HCC-2998 colon = test system: HCC-2998 colon
# HOP-62 NSCLC = test system: HOP-62 NSCLC
# MCF7 breast = test system: MCF7 breast
# CCRF-CEM leukemia = test system: CCRF-CEM leukemia
compound,measurement,setting,value
O=C1C(Nc2cccc(O)c2)=C(Sc2ccc(Cl)cc2)C(=O)N1Cc1ccccc1,GI50,NCI/ADR-RES ovarian,7.21 µM
same,TGI,NCI/ADR-RES ovarian,36.1 µM
same,GI50,A549 NSCLC,5.38 µM
same,TGI,A549 NSCLC,35.9 µM
same,GI50,T-47D breast,29.1 µM
same,TGI,T-47D breast,> 100 µM
same,GI50,OVCAR-5 ovarian,21.1 µM
same,TGI,OVCAR-5 ovarian,55 µM
same,GI50,SN12C renal,15.8 µM
same,TGI,SN12C renal,55.1 µM
same,GI50,SK-MEL-5 melanoma,8.44 µM
same,TGI,SK-MEL-5 melanoma,24.7 µM
same,GI50,DU-145 prostate,12 µM
same,TGI,DU-145 prostate,33.3 µM
same,GI50,SR leukemia,3.41 µM
same,TGI,SR leukemia,14.1 µM
same,GI50,HOP-92 NSCLC,4.73 µM
same,TGI,HOP-92 NSCLC,30.7 µM
same,GI50,OVCAR-4 ovarian,14.1 µM
same,TGI,OVCAR-4 ovarian,> 100 µM
same,GI50,PC-3 prostate,4.66 µM
same,TGI,PC-3 prostate,24.7 µM
same,GI50,MDA-MB-435,6.43 µM
same,TGI,MDA-MB-435,20 µM
same,GI50,RXF 393 renal,3.9 µM
same,TGI,RXF 393 renal,21.2 µM
same,GI50,ACHN renal,9.33 µM
same,TGI,ACHN renal,27 µM
same,GI50,HCT-116 colon,5.45 µM
same,TGI,HCT-116 colon,33.2 µM
same,GI50,OVCAR-3 ovarian,10.6 µM
same,TGI,OVCAR-3 ovarian,28.2 µM
same,GI50,A498 renal,10.3 µM
same,TGI,A498 renal,25.6 µM
same,GI50,SK-MEL-2 melanoma,28.3 µM
same,TGI,SK-MEL-2 melanoma,> 100 µM
same,GI50,IGROV1 ovarian,26.8 µM
same,TGI,IGROV1 ovarian,> 100 µM
same,GI50,NCI-H226 lung,32.6 µM
same,TGI,NCI-H226 lung,> 100 µM
same,GI50,UACC-62 melanoma,10.4 µM
same,TGI,UACC-62 melanoma,27.2 µM
same,GI50,KM12 colon,10.6 µM
same,TGI,KM12 colon,27.8 µM
same,GI50,OVCAR-8 ovarian,6.03 µM
same,TGI,OVCAR-8 ovarian,34.8 µM
same,GI50,786-0 renal,17.8 µM
same,TGI,786-0 renal,50 µM
same,GI50,SK-OV-3 ovarian,12.6 µM
same,TGI,SK-OV-3 ovarian,30.6 µM
same,GI50,CAKI-1 renal,18.6 µM
same,TGI,CAKI-1 renal,38.9 µM
same,GI50,NCI-H522 lung,21.3 µM
same,TGI,NCI-H522 lung,> 100 µM
same,GI50,K-562 leukemia,3.81 µM
same,TGI,K-562 leukemia,29.6 µM
same,GI50,UO-31 renal,7.93 µM
same,TGI,UO-31 renal,> 100 µM
same,GI50,COLO 205 colon,28.2 µM
same,TGI,COLO 205 colon,> 100 µM
same,GI50,NCI-H23 lung,6.77 µM
same,TGI,NCI-H23 lung,37.5 µM
same,GI50,MOLT-4 leukemia,3.05 µM
same,TGI,MOLT-4 leukemia,28.3 µM
same,GI50,HCT-15 colon,10.2 µM
same,TGI,HCT-15 colon,33.9 µM
same,GI50,SF-268 CNS,8.73 µM
same,TGI,SF-268 CNS,44.6 µM
same,GI50,NCI-H460 lung,5.61 µM
same,TGI,NCI-H460 lung,> 100 µM
same,GI50,U251 CNS,10.3 µM
same,TGI,U251 CNS,29.4 µM
same,GI50,SK-MEL-28 melanoma,11 µM
same,TGI,SK-MEL-28 melanoma,40.9 µM
same,GI50,LOX IMVI melanoma,8.7 µM
same,TGI,LOX IMVI melanoma,29.1 µM
same,GI50,SNB-19 CNS,25.1 µM
same,TGI,SNB-19 CNS,> 100 µM
same,GI50,HS 578T breast,13.3 µM
same,TGI,HS 578T breast,58.1 µM
same,GI50,TK-10 renal,16.7 µM
same,TGI,TK-10 renal,31.8 µM
same,GI50,MALME-3M melanoma,3.81 µM
same,TGI,MALME-3M melanoma,17.8 µM
same,GI50,RPMI-8226 leukemia,2.23 µM
same,TGI,RPMI-8226 leukemia,7.42 µM
same,GI50,SF-295 CNS,7.5 µM
same,TGI,SF-295 CNS,24.9 µM
same,GI50,M14 melanoma,6.94 µM
same,TGI,M14 melanoma,38.5 µM
same,GI50,HCC-2998 colon,2.94 µM
same,TGI,HCC-2998 colon,7.23 µM
same,GI50,HOP-62 NSCLC,15.8 µM
same,TGI,HOP-62 NSCLC,35.7 µM
same,GI50,MCF7 breast,5.86 µM
same,TGI,MCF7 breast,> 100 µM
same,GI50,CCRF-CEM leukemia,4.08 µM
same,TGI,CCRF-CEM leukemia,34.8 µM
